# According to ChEMBL document CHEMBL6078677, “Discovery and optimization of tetrahydroacridine derivatives as a novel class of antibiotics against multidrug-resistant Gram-positive pathogens by targeting type I signal peptidase and disrupting bacterial membrane” (Eur J Med Chem, 2025):
# How the values were obtained:
# Enterococcus faecalis [1] = test: Antimicrobial activity against Enterococcus faecalis J2 harboring erythromycin-resistance rRNA methylase B and oxazolidinone phenicol transferable resistance gene assessed as inhibition of visible growth of bacteria incubated for 20 hrs by broth microdilution method; assay type: functional
# Staphylococcus aureus [2] = test: microbe, parasite or virus in culture; assay type: functional; conditions: M92-1, time 20 hrs
# Description: Antimicrobial activity against Staphylococcus aureus M92-1 harboring erythromycin resistance rRNA methylase B, tetracycline efflux protein L and oxazolidinone-phenicol transferable resistance gene assessed as inhibition of visible growth of bacteria incubated for 20 hrs by broth microdilution method
# Streptococcus suis [3] = test: Antimicrobial activity against Streptococcus suis P1/7 assessed as inhibition of visible growth of bacteria incubated for 20 hrs by broth microdilution method; assay type: functional
# Enterococcus faecium [4] = test: Antimicrobial activity against Enterococcus faecium MC38 harboring erythromycin resistance rRNA methylase B and oxazolidinone-phenicol transferable resistance gene assessed as inhibition of visible growth of bacteria incubated for 20 hrs by broth microdilution method; assay type: functional
# Klebsiella pneumoniae = test: Antimicrobial activity against Klebsiella pneumoniae 9-1 assessed as inhibition of visible growth of bacteria incubated for 20 hrs by broth microdilution method; assay type: functional
# Staphylococcus aureus [5] = test: Antimicrobial activity against Staphylococcus aureus YZSA-24 harboring erythromycin resistance rRNA methylase C and methicillin resistance gene resistance locus assessed as inhibition of visible growth of bacteria incubated for 20 hrs by broth microdilution method; assay type: functional
# Enterococcus faecalis [6] = test: Antimicrobial activity against Enterococcus faecalis JH2-2 assessed as inhibition of visible growth of bacteria incubated for 20 hrs by broth microdilution method; assay type: functional
# Enterococcus faecalis [7] = test: microbe, parasite or virus in culture; assay type: functional; conditions: SF23-1, time 20 hrs
# Description: Antimicrobial activity against Enterococcus faecalis SF23-1 harboring erythromycin-resistance rRNA methylase B, tetracycline efflux protein L and chloramphenicol-florfenicol resistance methylase assessed as inhibition of visible growth of bacteria incubated for 20 hrs by broth microdilution method
# Staphylococcus aureus [8] = test: microbe, parasite or virus in culture; assay type: functional; conditions: M147-2, time 20 hrs
# Description: Antimicrobial activity against Staphylococcus aureus M147-2 harboring erythromycin resistance rRNA methylase B, tetracycline efflux protein L and chloramphenicol-florfenicol resistance methylase assessed as inhibition of visible growth of bacteria incubated for 20 hrs by broth microdilution method
# Pseudomonas aeruginosa [9] = test: Antimicrobial activity against Pseudomonas aeruginosa PA14 assessed as inhibition of visible growth of bacteria incubated for 20 hrs by broth microdilution method; assay type: functional
# Staphylococcus aureus [10] = test: Antimicrobial activity against Staphylococcus aureus YZSA-21 harboring erythromycin resistance rRNA methylase C assessed as inhibition of visible growth of bacteria incubated for 20 hrs by broth microdilution method; assay type: functional
# Staphylococcus aureus [11] = test: Antimicrobial activity against Staphylococcus aureus ATCC 29213 assessed as inhibition of visible growth of bacteria incubated for 20 hrs by broth microdilution method; assay type: functional
# Streptococcus agalactiae = test: Antimicrobial activity against Streptococcus agalactiae DL03 harboring erythromycin-resistance rRNA methylase B assessed as inhibition of visible growth of bacteria incubated for 20 hrs by broth microdilution method; assay type: functional
# Salmonella enteritidis = test: Antimicrobial activity against Salmonella enteritis S1 assessed as inhibition of visible growth of bacteria incubated for 20 hrs by broth microdilution method; assay type: functional, Salmonella enterica subsp. enterica serovar Enteritidis; conditions: Salmonella enterica
# Enterococcus faecium [12] = test: Antimicrobial activity against Enterococcus faecium QF31 harboring erythromycin resistance rRNA methylase B and chloramphenicol-florfenicol resistance methylase assessed as inhibition of visible growth of bacteria incubated for 20 hrs by broth microdilution method; assay type: functional
# Enterococcus faecium [13] = test: Antimicrobial activity against Enterococcus faecium HFY01 assessed as inhibition of visible growth of bacteria incubated for 20 hrs by broth microdilution method; assay type: functional
# Acinetobacter baumannii [14] = test: Antimicrobial activity against Acinetobacter baumannii 7979 assessed as inhibition of visible growth of bacteria incubated for 20 hrs by broth microdilution method; assay type: functional
# Pseudomonas aeruginosa [15] = test: Antimicrobial activity against Pseudomonas aeruginosa PA01 assessed as inhibition of visible growth of bacteria incubated for 20 hrs by broth microdilution method; assay type: functional
# Staphylococcus aureus [16] = test: Antimicrobial activity against Staphylococcus aureus YZSA-15 harboring erythromycin resistance rRNA methylase C and vancomycin resistance locus assessed as inhibition of visible growth of bacteria incubated for 20 hrs by broth microdilution method; assay type: functional
# Streptococcus suis [17] = test: microbe, parasite or virus in culture; assay type: functional; conditions: SH0918, time 20 hrs
# Description: Antimicrobial activity against Streptococcus suis SH0918 harboring erythromycin-resistance rRNA methylase B, tetracycline efflux protein O and oxazolidinone phenicol transferable resistance gene assessed as inhibition of visible growth of bacteria incubated for 20 hrs by broth microdilution method
# Enterococcus faecalis [18] = test: Antimicrobial activity against Enterococcus faecalis ES01 harboring erythromycin-resistance rRNA methylase B and vanB-type vancomycin-resistance locus assessed as inhibition of visible growth of bacteria incubated for 20 hrs by broth microdilution method; assay type: functional
# Acinetobacter baumannii [19] = test: Antimicrobial activity against Acinetobacter baumannii AB11 assessed as inhibition of visible growth of bacteria incubated for 20 hrs by broth microdilution method; assay type: functional
# Streptococcus pyogenes = test: Antimicrobial activity against Streptococcus pyogenes DL02 harboring erythromycin-resistance rRNA methylase B assessed as inhibition of visible growth of bacteria incubated for 20 hrs by broth microdilution method; assay type: functional
# Escherichia coli = test: Antimicrobial activity against Escherichia coli ATCC 25922 assessed as inhibition of visible growth of bacteria incubated for 20 hrs by broth microdilution method; assay type: functional
SMILES,MIC (Enterococcus faecalis [1]) [µg/mL],MIC (Staphylococcus aureus [2]) [µg/mL],MIC (Streptococcus suis [3]) [µg/mL],MIC (Enterococcus faecium [4]) [µg/mL],MIC (Klebsiella pneumoniae) [µg/mL],MIC (Staphylococcus aureus [5]) [µg/mL],MIC (Enterococcus faecalis [6]) [µg/mL],MIC (Enterococcus faecalis [7]) [µg/mL],MIC (Staphylococcus aureus [8]) [µg/mL],MIC (Pseudomonas aeruginosa [9]) [µg/mL],MIC (Staphylococcus aureus [10]) [µg/mL],MIC (Staphylococcus aureus [11]) [µg/mL],MIC (Streptococcus agalactiae) [µg/mL],MIC (Salmonella enteritidis) [µg/mL],MIC (Enterococcus faecium [12]) [µg/mL],MIC (Enterococcus faecium [13]) [µg/mL],MIC (Acinetobacter baumannii [14]) [µg/mL],MIC (Pseudomonas aeruginosa [15]) [µg/mL],MIC (Staphylococcus aureus [16]) [µg/mL],MIC (Streptococcus suis [17]) [µg/mL],also measured
C[C@H]1c2cccc(O)c2C(=O)C2=C(O)[C@]3(O)C(=O)C(C(N)=O)=C(O)[C@@H](N(C)C)[C@@H]3[C@@H](O)[C@@H]21 [DOXYCYCLINE ANHYDROUS],8,> 32,0.125,16,> 32,0.5,4,16,> 32,16,0.25,0.25,< 0.06,> 32,16,< 0.06,> 32,8,0.25,16,MIC (Enterococcus faecalis [18]): 2 µg/mL; MIC (Acinetobacter baumannii [19]): < 0.06 µg/mL; MIC (Streptococcus pyogenes): 2 µg/mL; MIC (Escherichia coli): 1 µg/mL
CC[C@H]1OC(=O)[C@H](C)[C@@H](O[C@H]2C[C@@](C)(OC)[C@@H](O)[C@H](C)O2)[C@H](C)[C@@H](O[C@@H]2O[C@H](C)C[C@H](N(C)C)[C@H]2O)[C@](C)(O)C[C@@H](C)C(=O)[C@H](C)[C@@H](O)[C@]1(C)O [ERYTHROMYCIN],> 32,> 32,0.125,> 32,–,> 32,0.25,> 32,> 32,–,> 32,1,> 32,–,> 32,2,–,–,> 32,> 32,MIC (Enterococcus faecalis [18]): > 32 µg/mL; MIC (Streptococcus pyogenes): > 32 µg/mL
C[C@H]1COc2c(N3CCN(C)CC3)c(F)cc3c(=O)c(C(=O)O)cn1c23 [LEVOFLOXACIN ANHYDROUS],–,–,–,–,> 32,–,–,–,–,0.125,–,–,–,0.5,–,–,> 32,0.5,–,–,MIC (Acinetobacter baumannii [19]): 0.125 µg/mL; MIC (Escherichia coli): 0.125 µg/mL
CNC(C)[C@@H]1CC[C@@H](N)[C@@H](O[C@H]2[C@H](O)[C@@H](O[C@H]3OC[C@](C)(O)[C@H](NC)[C@H]3O)[C@H](N)C[C@@H]2N)O1.CN[C@@H]1[C@@H](O)[C@@H](O[C@@H]2[C@@H](O)[C@H](O[C@H]3O[C@H](C(C)N)CC[C@H]3N)[C@@H](N)C[C@H]2N)OC[C@]1(C)O.CN[C@@H]1[C@@H](O)[C@@H](O[C@@H]2[C@@H](O)[C@H](O[C@H]3O[C@H](CN)CC[C@H]3N)[C@@H](N)C[C@H]2N)OC[C@]1(C)O (some centres undefined),8,> 32,4,> 32,0.5,0.5,4,8,0.5,< 0.06,0.5,1,16,0.25,> 32,< 0.06,> 32,0.125,0.5,> 32,MIC (Enterococcus faecalis [18]): > 32 µg/mL; MIC (Acinetobacter baumannii [19]): < 0.06 µg/mL; MIC (Streptococcus pyogenes): 1 µg/mL
CO[C@@]1(NC(=O)Cc2cccs2)C(=O)N2C(C(=O)O)=C(COC(N)=O)CS[C@@H]21 [CEFOXITIN],> 32,4,1,> 32,> 32,32,> 32,> 32,4,> 32,4,1,16,32,> 32,8,> 32,> 32,2,8,MIC (Enterococcus faecalis [18]): > 32 µg/mL; MIC (Acinetobacter baumannii [19]): 16 µg/mL; MIC (Streptococcus pyogenes): 1 µg/mL; MIC (Escherichia coli): 0.25 µg/mL
CCC[C@@H]1C[C@@H](C(=O)N[C@@H]([C@H]2O[C@H](SC)[C@H](O)[C@@H](O)[C@H]2O)[C@H](C)Cl)N(C)C1 [CLINDAMYCIN],> 32,> 32,0.125,> 32,> 32,> 32,0.5,> 32,> 32,> 32,> 32,0.125,> 32,> 32,> 32,0.5,> 32,> 32,> 32,> 32,MIC (Enterococcus faecalis [18]): > 32 µg/mL; MIC (Acinetobacter baumannii [19]): 0.5 µg/mL; MIC (Streptococcus pyogenes): > 32 µg/mL; MIC (Escherichia coli): > 32 µg/mL
